Marks after values point to notes of the source that are not given here.
Experiments:
human androgen receptor = target: T1, human androgen receptor (Homo sapiens, UniProt P10275); assay: AR transactivation (CHO, MMTV-LUC); type: cell-based
T1 construct: host or cells: CHO, transient co-transfection
T1 sequence (P10275 1-920): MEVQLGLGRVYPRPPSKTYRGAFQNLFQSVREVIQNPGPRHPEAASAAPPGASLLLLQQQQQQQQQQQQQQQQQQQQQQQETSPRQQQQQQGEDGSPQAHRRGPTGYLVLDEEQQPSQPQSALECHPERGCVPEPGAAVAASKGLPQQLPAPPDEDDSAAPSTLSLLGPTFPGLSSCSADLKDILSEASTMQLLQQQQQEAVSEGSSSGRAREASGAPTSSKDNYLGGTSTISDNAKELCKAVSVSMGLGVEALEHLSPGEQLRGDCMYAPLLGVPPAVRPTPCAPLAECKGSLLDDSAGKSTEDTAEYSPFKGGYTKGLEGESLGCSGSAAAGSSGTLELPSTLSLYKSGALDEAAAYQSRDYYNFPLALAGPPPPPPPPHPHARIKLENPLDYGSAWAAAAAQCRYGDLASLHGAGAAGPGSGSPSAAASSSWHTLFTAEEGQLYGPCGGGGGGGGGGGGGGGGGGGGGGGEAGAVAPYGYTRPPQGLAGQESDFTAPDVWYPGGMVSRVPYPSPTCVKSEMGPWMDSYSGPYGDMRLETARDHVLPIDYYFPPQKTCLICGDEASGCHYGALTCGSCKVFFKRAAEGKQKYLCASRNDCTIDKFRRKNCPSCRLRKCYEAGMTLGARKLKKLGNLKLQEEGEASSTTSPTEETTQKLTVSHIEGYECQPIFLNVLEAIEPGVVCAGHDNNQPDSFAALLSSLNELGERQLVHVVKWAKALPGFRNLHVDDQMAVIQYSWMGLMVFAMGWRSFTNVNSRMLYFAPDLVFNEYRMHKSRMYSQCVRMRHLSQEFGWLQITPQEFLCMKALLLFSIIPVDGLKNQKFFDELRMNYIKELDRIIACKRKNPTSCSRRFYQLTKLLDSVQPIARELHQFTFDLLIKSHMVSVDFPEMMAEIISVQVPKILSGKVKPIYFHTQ
Experimental: The androgen transactivation potential of EC313 was studied in the CHO cell line expressing this steroid protein receptor. The cells were co-transfected with a vector encoding a human full-length androgen receptor (hAR) linked to the reporter vector MMTV/LUC. To produce high protein expression, transient transfections were carried out. […] Agonist and antagonist properties of EC313 toward tested receptor AR were analyzed using luminescence detection.
To prepare the transfection assay, plasmids were generated and isolated. Plasmid included vector coding sequences for the receptor as well as the reporter gene. Vector pcDNA3.1 coding sequence for the full length of human AR (AR cDNA ORF clone in pcDNA3.1+/C-(K)-DYK) was used as an expression vector for AR. Vector pGL4.36 coding for the androgen-responsive element (MMTV) linked to Firefly luciferase [luc2P/Hygro] was used as a reporter system (pGL4.36-MMTV/LUC).
Co-transfection was performed on a 96-well plate (16x10^3 cells per well) in culture medium (RPMI w/o phenol red, 10% FBS, L-Glu) w/o antibiotics using transfection reagents following the manufacturer’s instructions. Prior to transfection, plated cells were approximately 70%–80% confluent. After 24h of transfection, medium was removed to a culture medium and cells were treated for the next 24h with the test compounds.
After incubating the cells for 24h with the tested compounds, the luciferase activity was analyzed.

PR-B – NCoR = target: T2, PR-B – NCoR (Homo sapiens, UniProt P06401); assay: PR-B – NCoR interaction, two-hybrid system; type: cell-based
T2 construct: expressed in transfected cells
T2 sequence (P06401 whole entry): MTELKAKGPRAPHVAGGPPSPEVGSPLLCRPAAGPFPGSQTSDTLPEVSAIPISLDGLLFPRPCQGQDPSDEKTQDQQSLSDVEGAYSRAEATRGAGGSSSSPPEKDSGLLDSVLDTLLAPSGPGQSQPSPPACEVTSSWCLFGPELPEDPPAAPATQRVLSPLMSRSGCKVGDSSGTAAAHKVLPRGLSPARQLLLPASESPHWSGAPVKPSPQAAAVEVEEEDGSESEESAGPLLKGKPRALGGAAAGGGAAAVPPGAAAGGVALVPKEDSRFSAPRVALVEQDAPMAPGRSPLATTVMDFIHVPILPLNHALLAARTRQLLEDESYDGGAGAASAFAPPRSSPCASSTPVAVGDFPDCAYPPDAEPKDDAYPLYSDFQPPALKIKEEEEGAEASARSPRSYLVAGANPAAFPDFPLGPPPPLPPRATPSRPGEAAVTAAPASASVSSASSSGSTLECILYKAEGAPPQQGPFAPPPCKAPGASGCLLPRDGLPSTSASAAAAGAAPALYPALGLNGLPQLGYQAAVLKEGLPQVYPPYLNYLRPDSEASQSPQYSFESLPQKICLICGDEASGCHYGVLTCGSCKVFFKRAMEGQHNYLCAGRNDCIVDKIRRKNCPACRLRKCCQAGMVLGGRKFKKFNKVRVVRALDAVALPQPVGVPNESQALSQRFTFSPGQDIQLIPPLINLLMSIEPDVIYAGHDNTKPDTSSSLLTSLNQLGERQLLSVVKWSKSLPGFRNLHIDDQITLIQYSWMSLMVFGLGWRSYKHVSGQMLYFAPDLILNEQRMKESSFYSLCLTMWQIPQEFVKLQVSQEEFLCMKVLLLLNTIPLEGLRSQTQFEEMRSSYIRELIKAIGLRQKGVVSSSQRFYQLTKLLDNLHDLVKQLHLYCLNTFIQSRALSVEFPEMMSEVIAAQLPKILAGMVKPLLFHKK
T2 sequence (O75376 whole entry partner): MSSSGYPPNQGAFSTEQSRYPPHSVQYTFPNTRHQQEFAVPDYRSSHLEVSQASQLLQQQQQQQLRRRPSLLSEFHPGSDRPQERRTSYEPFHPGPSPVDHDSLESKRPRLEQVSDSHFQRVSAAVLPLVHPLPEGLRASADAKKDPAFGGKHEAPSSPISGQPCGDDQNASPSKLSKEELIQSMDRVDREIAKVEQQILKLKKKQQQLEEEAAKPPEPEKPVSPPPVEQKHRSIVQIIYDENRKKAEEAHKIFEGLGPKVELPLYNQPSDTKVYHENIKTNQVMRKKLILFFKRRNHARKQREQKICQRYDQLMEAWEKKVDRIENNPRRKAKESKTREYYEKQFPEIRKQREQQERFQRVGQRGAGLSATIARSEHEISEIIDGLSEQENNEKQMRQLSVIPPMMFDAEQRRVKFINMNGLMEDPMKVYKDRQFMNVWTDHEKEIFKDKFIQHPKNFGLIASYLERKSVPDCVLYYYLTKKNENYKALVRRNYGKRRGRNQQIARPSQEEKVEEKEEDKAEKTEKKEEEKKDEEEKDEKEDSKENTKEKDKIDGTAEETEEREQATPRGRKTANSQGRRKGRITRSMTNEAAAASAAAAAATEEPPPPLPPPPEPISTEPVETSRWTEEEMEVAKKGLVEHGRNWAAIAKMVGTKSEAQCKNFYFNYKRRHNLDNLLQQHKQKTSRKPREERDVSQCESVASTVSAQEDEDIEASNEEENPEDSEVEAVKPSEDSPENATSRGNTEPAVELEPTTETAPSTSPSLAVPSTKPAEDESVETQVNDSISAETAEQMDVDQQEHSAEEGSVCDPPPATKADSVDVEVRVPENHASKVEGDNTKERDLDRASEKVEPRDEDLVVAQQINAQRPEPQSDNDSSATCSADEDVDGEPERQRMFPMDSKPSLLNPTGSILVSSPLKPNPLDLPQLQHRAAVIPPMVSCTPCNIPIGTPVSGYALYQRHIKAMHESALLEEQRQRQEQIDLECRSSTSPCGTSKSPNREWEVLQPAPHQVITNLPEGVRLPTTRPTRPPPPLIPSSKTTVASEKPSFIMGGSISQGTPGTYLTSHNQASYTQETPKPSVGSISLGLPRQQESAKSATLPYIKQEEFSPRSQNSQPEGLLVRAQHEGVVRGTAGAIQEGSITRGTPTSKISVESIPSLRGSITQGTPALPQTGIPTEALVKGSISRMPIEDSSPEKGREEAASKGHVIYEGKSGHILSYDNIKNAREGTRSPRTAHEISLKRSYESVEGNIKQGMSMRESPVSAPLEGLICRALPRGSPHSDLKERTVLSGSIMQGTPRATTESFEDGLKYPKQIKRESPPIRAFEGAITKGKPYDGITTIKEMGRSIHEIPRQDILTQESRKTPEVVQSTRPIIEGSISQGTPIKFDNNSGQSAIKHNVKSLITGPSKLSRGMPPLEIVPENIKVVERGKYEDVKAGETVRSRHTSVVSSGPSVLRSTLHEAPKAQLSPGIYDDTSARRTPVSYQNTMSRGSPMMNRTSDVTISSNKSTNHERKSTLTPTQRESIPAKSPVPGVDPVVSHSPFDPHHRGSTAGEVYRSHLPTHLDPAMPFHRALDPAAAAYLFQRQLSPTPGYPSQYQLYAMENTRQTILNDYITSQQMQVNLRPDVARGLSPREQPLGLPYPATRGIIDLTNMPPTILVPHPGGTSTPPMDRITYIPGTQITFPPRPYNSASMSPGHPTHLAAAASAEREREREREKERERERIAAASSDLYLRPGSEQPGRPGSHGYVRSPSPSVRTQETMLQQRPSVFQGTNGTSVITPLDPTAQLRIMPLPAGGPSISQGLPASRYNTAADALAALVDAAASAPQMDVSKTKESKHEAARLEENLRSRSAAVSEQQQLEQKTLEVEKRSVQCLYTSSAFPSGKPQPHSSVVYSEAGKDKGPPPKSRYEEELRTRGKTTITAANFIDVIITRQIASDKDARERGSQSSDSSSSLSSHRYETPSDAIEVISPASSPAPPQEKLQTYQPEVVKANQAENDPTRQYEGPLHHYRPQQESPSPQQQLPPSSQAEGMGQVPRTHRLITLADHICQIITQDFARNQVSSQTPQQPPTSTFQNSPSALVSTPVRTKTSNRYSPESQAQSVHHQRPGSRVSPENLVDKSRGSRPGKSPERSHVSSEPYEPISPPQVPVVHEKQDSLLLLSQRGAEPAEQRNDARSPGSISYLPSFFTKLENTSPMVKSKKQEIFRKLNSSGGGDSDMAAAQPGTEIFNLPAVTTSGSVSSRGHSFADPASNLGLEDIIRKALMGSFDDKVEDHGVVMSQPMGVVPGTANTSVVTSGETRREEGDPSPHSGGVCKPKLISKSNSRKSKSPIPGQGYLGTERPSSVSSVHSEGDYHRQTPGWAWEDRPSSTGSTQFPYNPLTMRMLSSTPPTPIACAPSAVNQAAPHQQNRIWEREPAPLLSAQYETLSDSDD
Text: The active recruitment of the nuclear corepressor NCoR results in transcriptional inactivity of the PR. So, the potency of PR ligands to induce the interaction of PR with NCoR provides information on the antagonistic potency of the ligand. Therefore, the capacity of EC313 to induce the interaction of PR-B with the corepressor NCoR in comparison with reference ligands was studied. All test compounds except the receptor agonist Promegestone induced PR to interact with NCoR.
Figure 11 (A) PR-B interaction with NCoR using a two-hybrid assay. Dose response curve. […] (B) Liganded PR-Binteraction with c-SRC kinase. The data presented are from five independent experiments. Signals are represented as mean luminescence ± SD normalized to maximal promegestone activity equal to 100%.

cycling guinea pigs = assay: Ovulation inhibition in cycling guinea pigs; type: in vivo, guinea pig; settings: for Number of ovulations vs. number of inseminated females: cycle days 10-17
Experimental: Test compounds were administered once daily from cycle days 10-17 by s. c. injection using 0.2 mL vehicle (benzyl-benzoate/castor oil, ratio 1 + 4 v/v). The time of autopsy (day 18) was 24-48h after the expected ovulation at the end of the treatment cycle. This design permits the study of the effects of the tested compounds on the expected ovulation. Fresh CL were evidence of a recent ovulation.

[1] = tested on: estrogen-primed endometrium of immature rabbits; assay: McPhail assay, estrogen-primed rabbit endometrium; type: in vivo
Experimental: The secretory transformation of estrogen-primed endometrium of immature rabbits indicates the strength of the progestagenic action on the endometrium of the chosen test compound. The simultaneous administration of test compounds with progesterone can indicate potential anti-progestagenic actions.
Female rabbits received daily s.c. injections of 5.0 µg 17β-Estradiol/per animal for 6 days leading to the proliferation of the endometrium. From day 7 to day 13 the animals received doses of vehicle, EC313 (1 to 30 mg/animal/day s.c) or progesterone. On day 14, the animals were sacrificed and the uteri were processed for histological evaluation and the secretory endometrial transformation was rated according to a modified McPhail score (1 – 4).
The rating scale ranges from 1 (no or very low secretory, transformation, or agonistic activity) to 4 (highest secretory, transformation, or agonistic activity). The McPhail score of 2 (median) was selected for the comparison. The antagonistic activity was measured by the concomitant administration of progesterone ([…] s.c.).

## C[C@]12C[C@H](c3ccc(-c4ccoc4)cc3)C3=C4CCC(=O)C=C4CC[C@H]3[C@@H]1CC[C@]21OCCC1=C(F)F [EC313]
Human androgen receptor; AR agonism
  fold higher concentration for the same androgenic effect vs Metribolone: 38 fold
Human androgen receptor; AR, three experiments, read-out: EC50, agonistic activity
  EC50: 280 nM
Human androgen receptor; AR, vs 13 nM Metribolone
  antagonistic activity: No antagonistic activity
PR-B – NCoR
  efficacy relative to Ulipristal acetate, NCoR interaction: 83%
  fold lower potency than Ulipristal acetate, NCoR interaction: 200 fold
  induction of PR interaction with NCoR: limited ability to induce progesterone receptor interaction with NCoR
Cycling guinea pigs; 0.1 mg/animal/day s.c.
  Number of ovulations vs. number of inseminated females: 1/5
Cycling guinea pigs; 1.0 mg/animal/day s.c.
  Number of ovulations vs. number of inseminated females: 0/5
Cycling guinea pigs; 10.0 mg/animal/day s.c.
  Number of ovulations vs. number of inseminated females: 0/8
Cycling guinea pigs; 1 and 10 mg/animal/day s.c.
  inhibition of ovulation: Full inhibition of ovulation
Cycling guinea pigs; non-pregnant guinea pigs, all tested dose levels, 0.1 to 10.0 mg/animal/day s.c.
  effects in the vaginal epithelium: mucification
[1]; McPhail score 2 doses
  Quotient between antagonistic and agonistic action: ~ 10.0*
[1]; agonistic, 1 to 30 mg/animal/day s.c., scale 1-4
  maximal effect, McPhail score (average per treatment group): ≤ 2.5
[1]; dose giving McPhail score 2
  Score 2 for PR-agonistic activity: ~ 1.0 mg/animal/day s.c.
[1]; dose giving McPhail score 2, concomitant progesterone (1 g/animal/day [sic] s.c.)
  Score 2 for PR-antagonistic activity: ~ 10.0 mg/animal/day s.c.
[1]; rabbit, in vivo
  relatively more agonistic than antagonistic effects in comparison with Asoprisnil: approx. 7 times

— article PMC10520499, “Next step in the development of mesoprogestins: the preclinical profile of EC313” (Frontiers in Endocrinology, 2023)
